Source: patent US5304560A, “Quinazoline derivatives and their preparation” (Fujisawa Pharmaceutical Co., Ltd., priority 1990, dated 1994)

What was measured:
[1] = target: T1, DA2 receptor (Rattus norvegicus, UniProt P61169); assay: Dopamine receptor (DA2 receptor) binding assay; conditions: [3H]spiperone 0.2 nM; rat striatum 160 μg/ml; 37° C., 10 minutes, pH 7.4
T1 construct: The final tissue concentration of rat striatum was 160 μg/ml; from tissue; host or cells: rat striatum (printed 'stratum'), washed homogenate
T1 sequence (P61169 whole entry): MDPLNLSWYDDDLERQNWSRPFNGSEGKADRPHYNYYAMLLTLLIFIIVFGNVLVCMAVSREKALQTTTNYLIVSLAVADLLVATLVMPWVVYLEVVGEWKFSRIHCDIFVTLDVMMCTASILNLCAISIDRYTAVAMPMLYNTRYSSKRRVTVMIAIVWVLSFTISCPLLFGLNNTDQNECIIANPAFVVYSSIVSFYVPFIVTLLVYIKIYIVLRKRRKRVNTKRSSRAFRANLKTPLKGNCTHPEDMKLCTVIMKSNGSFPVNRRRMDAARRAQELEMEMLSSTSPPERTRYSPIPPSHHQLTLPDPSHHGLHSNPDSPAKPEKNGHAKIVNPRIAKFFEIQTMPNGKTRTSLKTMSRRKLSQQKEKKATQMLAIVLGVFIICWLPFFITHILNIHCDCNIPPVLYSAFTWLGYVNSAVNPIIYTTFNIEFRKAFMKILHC
Protocol: Test 1 [Dopamine receptor (DA2 receptor) binding assay]
The affinity for DA2 receptor of a Test Compound was determined following in vitro receptor binding assays.
Male rats weighing 150-300 g were decapitated and the stratum were dissected from their brains. The tissue was homogenized in 30 volumes of buffer which consisted of 50 mM Tris-HCl (pH 7.4 at 25° C.), 120 mM sodium chloride, 5 mM potassium chloride, 1 mM calcium chloride, 1 mM magnesium chloride, 10 μM pargirine, and 0.1% ascorbic acid. The homogenate was centrifuged at 50,000 g for 15 minutes. The pellet was resuspended in 30 volumes of the buffer. The tissue suspension was centrifuged and suspended again in the same way.
Incubation tubes received 100 μl of [phenyl-4-^3 H]spiperone, 100 μl of the Test Compound and 0.8 ml of tissue suspension during binding assays. The concentration of [phenyl-4-^3 H]spiperone was 0.2 nM. The final tissue concentration of rat striatum was 160 μg/ml. […] The filters were counted by liquid scintillation counter.
Specific binding of the [^3 H]spiperone was determined in the presence of 1 μM butaclamol. The IC50 value of the Test Compound was calculated from the data of [^3 H]spiperone binding in the presence of 10^-9 M, 10^-8 M, 10^-7 M and 10^-6 M Test Compound.

[2] = test system: spontaneous hypertensive rats; assay: Hypotensive effect on spontaneous hypertensive rats; type: in vivo, rat; conditions: dose 1 mg/kg, oral, in 0.5% methylcellulose; 15 to 25-week-old male spontaneous hypertensive rats
Protocol: Test 3 [Hypotensive effect on spontaneous hypertensive rats]
15 to 25-Week-old male spontaneous hypertensive rats with mean arterial blood pressure of about 160-200 mmHg, weighing 300-350 g, were used. The animals were cannulated in the left femoral artery and the mean blood pressure and heart rate were measured with a pressure-transducer. The animals were deprived of food for about 18 hours before oral dosing. The Test Compound was suspended in 0.5% methylcellulose, and given orally.

[3] = test system: reserpine-induced DOPA accumulation; assay: Inhibition of reserpine-induced DOPA accumulation; type: in vivo, Male SD rats; conditions: dose 3.2 mg/kg, oral, 2 hours before sacrifice; reserpine 1 mg/kg s.c. 17-19 hours before; striatum DOPA
Protocol: Test 2 [Inhibition of reserpine-induced DOPA accumulation]
Male SD rats weighing 300-400 g were used in this test. Rats were pretreated with reserpine (1 mg/kg, S.C.) 17-19 hours before sacrifice and then fasted. Test Compound was given orally to the rats 2 hours before sacrifice. [m-Hydroxybenzylhydrazine (100 mg/kg, i.p.) was given 30 minutes before sacrifice.] Each rat was exposed to microwaves using a head-focus microwave applicator for 1.5 seconds. The whole brain was removed and further separated into the striatum.
DOPA was determined as follows; the striatum was homogenized in 9 volumes of 0.1N perchloric acid solution (0.4% EDTA·2Na). The homogenate was centrifuged at 10,000 rpm for 1 minutes. The supernatant was applied to high performance liquid chromatography.

SMILES: Br.O=c1[nH]c(=O)n(CCCCN2CC=C(c3ccccc3)CC2)c2cc(O)ccc12 [Compound A, 1-[4-(4-phenyl-1,2,3,6-tetrahydropyridin-1-yl)butyl]-7-hydroxy-2,4(1H,3H)-quinazolinedione hydrobromide]
- IC50 [1]: 7.4 nM
- Maximum decrease of blood pressure (%) [2]: 19%
- Inhibition (%) [3]: 10%
